Molecular target: T1, D-2-HAA halidohydrolase from Pseudomonas putida NCIB 12018 (0.15 M fraction) (Pseudomonas putida, UniProt Q52086)
T1 construct: Activity towards D-2-CPA was found exclusively in the 0.15 M fraction; endogenous in cells; host or cells: Pseudomonas putida NCIB 12018 (cell-free extract from French pressure cell, fractionated on DEAE-Sephacel, 0.15 M KCl fraction)
Test: Inhibition of dehalogenation activity of the isolated D-2-HAA halidohydrolase (0.15 M DEAE-Sephacel fraction)
Type: biochemical
Settings: at up to 1 M concentration of the substance; substrate (DL-2-CPA) or reaction product (lactate)
Procedure: Samples of the cell-free extracts were submitted in duplicate to polyacrylamide gel electrophoresis (Hardman et al, Journal of General Microbiology, 1981, Volume 123, pages 117-128). One of each pair of gels, after electrophoresis was incubated in a buffer solution containing 50 mM D-2-CPA and the other of each pair was incubated in a buffer solution containing 50 mM L-2-CPA as described in the aforesaid Hardman et al reference.
A portion (25 ml) of the cell free extract from Pseudomonas putida NCIB 12018 was loaded onto DEAE-Sephacel column (45 mm diameter, 60 cm high) pre-equilibrated with 25 mM Tris/Sulphate buffer at pH 7.5. The column was eluted with portions (200 ml) of this buffer neat and then containing successively 0.15 M, 0.2 M and 0.5 M potassium chloride at a flow rate of 100 ml/hour.
Each of the four fractions was assayed for halidohydrolase activity as described in Step 2 using L-2-CPA and D-2-CPA as substrates.
The halidohydrolase in the 0.15 M fraction has a pH optimum for activity on D-2-CPA at 8.8-9.0. It has good activity in organic (Tris/Sulphate) and inorganic (bicarbonate/carbonate) buffers, and has activity in unbuffered media, e.g. distilled water, with the pH controlled at 8.8-9.0.
The enzymatic activity is not inhibited by up to 1 M DL-2-CPA or by the products of the reaction, i.e. chloride ion and lactate, at up to 1 M concentration.

T1 sequence (Q52086 whole entry): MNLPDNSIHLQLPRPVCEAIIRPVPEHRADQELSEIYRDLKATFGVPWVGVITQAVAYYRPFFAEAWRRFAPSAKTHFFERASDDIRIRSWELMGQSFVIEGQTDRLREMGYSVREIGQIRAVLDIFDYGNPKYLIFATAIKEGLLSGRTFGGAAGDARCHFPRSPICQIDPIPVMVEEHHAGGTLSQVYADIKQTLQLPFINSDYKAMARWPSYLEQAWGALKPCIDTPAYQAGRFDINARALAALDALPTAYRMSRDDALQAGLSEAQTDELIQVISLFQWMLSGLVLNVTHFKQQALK

| Structure (SMILES) | inhibition of the enzymatic activity |
| --- | --- |
| CC(Cl)C(=O)O (racemic) [DL-2-CPA, 2-chloropropionic acid] | not inhibited |
| CC(O)C(=O)O (centres unmarked) [lactate] | not inhibited |

Source: US4758518A, “D-2-haloalkanoic acid halidohydrolase” (Imperial Chemical Industries PLC, priority 1984, dated 1988)
